The target of assay [1] is T1, human GIPR (Homo sapiens, UniProt P48546).
T1 construct: expressed in transfected cells; crude membranes
T1 sequence (P48546 22-466): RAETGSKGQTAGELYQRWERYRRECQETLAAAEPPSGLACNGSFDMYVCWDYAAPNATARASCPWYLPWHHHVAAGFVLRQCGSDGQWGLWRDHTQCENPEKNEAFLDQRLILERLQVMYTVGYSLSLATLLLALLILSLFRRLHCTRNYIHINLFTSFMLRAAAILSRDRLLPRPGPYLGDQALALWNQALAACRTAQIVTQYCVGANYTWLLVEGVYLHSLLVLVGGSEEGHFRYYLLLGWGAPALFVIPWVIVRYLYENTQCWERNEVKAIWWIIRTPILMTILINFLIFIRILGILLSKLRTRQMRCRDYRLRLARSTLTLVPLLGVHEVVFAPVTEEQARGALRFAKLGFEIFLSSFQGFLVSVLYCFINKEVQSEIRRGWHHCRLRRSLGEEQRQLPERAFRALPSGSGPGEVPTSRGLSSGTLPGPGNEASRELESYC
The assay can be described thus: [125I]-GIP binding, SPA with WGA beads, 0.1% bacitracin. As to conditions: geometric mean, read-out: hGIPR Ki. An outline of the steps:
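Ki values are geometric means (SEM, n independent days), derived from four-parameter nonlinear regression of IC50. Membranes came from hGIPR-expressing CHO cells.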

Assay [2] deals with T2, human GcgR (Homo sapiens, UniProt P47871).
T2 construct: expressed in transfected cells; crude membranes
The assay can be described thus: [125I]-Glucagon binding, SPA with WGA beads, 0.1% bacitracin. Particulars: geometric mean, read-out: hGcgR Ki. An outline of the steps:
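SPA competition binding with WGA beads on crude membranes from HEK293 cells stably expressing hGcgR. Buffer: 25 mM HEPES pH 7.4, 2.5 mM CaCl2, 1 mM MgCl2, 0.1% bacitracin, 0.003% Tween-20; 10-point 3-fold dilutions, NSB with 1 μM Gcg.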

*1 amine or outer side, *2 acyl side, *3 side chain or, on linkers, in order; H or OH if unused. Where a SMILES comes first, the peptide text is derived from it. Side-chain parts run from the residue outwards. [ ]: non-standard residue; d: D form. The star is where a group is joined. C20 diacid = O=C(O)CCCCCCCCCCCCCCCCCCC(=O)*; C18 diacid = O=C(O)CCCCCCCCCCCCCCCCC(=O)*; γGlu = O=C(O)[C@H](CCC(=O)[*:2])N[*:1]; 4Pal = N[C@@H](Cc1ccncc1)C(=O)O; AEEA = NCCOCCOCC(=O)O; Aib = CC(C)(N)C(=O)O

T2 sequence (P47871 26-477): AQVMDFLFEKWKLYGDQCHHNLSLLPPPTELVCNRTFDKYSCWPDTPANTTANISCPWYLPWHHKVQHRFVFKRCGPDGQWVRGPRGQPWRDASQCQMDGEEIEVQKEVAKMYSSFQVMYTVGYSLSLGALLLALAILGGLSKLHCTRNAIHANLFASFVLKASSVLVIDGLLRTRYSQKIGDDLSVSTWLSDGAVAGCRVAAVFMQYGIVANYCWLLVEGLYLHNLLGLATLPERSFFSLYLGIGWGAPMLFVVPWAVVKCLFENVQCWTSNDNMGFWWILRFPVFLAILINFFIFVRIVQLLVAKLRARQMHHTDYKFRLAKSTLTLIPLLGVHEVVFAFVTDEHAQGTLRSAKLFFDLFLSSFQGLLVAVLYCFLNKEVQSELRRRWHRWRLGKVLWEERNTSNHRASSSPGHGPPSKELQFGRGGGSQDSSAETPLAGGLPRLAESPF

As to `CC[C@H](C)[C@H](NC(=O)[C@H](CO)NC(=O)[C@H](Cc1ccc(O)cc1)NC(=O)[C@H](CC(=O)O)NC(=O)[C@H](CO)NC(=O)[C@@H](NC(=O)[C@H](Cc1ccccc1)NC(=O)[C@@H](NC(=O)CNC(=O)[C@H](CCC(=O)O)NC(=O)[C@@H](C)NC(=O)[C@@H](N)Cc1ccc(O)cc1)[C@@H](C)O)[C@@H](C)CC)C(=O)N[C@@H](CC(C)C)C(=O)N[C@@H](CC(C)C)C(=O)N[C@@H](CC(=O)O)C(=O)N[C@@H](CCCCN)C(=O)N[C@@H](CCCCNC(=O)COCCOCCNC(=O)COCCOCCNC(=O)CC[C@H](NC(=O)CCCCCCCCCCCCCCCCCCC(=O)O)C(=O)O)C(=O)N[C@@H](Cc1c[nH]cn1)C(=O)N[C@@H](CCC(N)=O)C(=O)N[C@@H](CCC(N)=O)C(=O)N[C@@H](CC(=O)O)C(=O)N[C@@H](Cc1ccccc1)C(=O)N[C@H](C(=O)N[C@@H](CCC(=O)O)C(=O)N[C@@H](Cc1c[nH]c2ccccc12)C(=O)N[C@@H](CC(C)C)C(=O)N[C@@H](CC(C)C)C(=O)N[C@@H](C)C(=O)N[C@@H](CCC(N)=O)C(=O)NCC(=O)N1CCC[C@H]1C(=O)N[C@@H](CO)C(=O)N[C@@H](CO)C(=O)NCC(=O)N[C@@H](C)C(=O)N1CCC[C@H]1C(=O)N1CCC[C@H]1C(=O)N1CCC[C@H]1C(=O)N[C@@H](CO)C(N)=O)C(C)C` [Example 14] (H-Y[dA]EGTFISDYSILLDKK([AEEA-AEEA-γGlu-C20 diacid])HQQDFVEWLLAQGPSSGAPPPS-NH2), the values for the Ki in assay [1] and in assay [2] were 460 pM and greater than 230000 pM, respectively.

In the case of `CC[C@H](C)[C@H](NC(=O)[C@H](CO)NC(=O)[C@H](Cc1ccc(O)cc1)NC(=O)[C@H](CC(=O)O)NC(=O)[C@H](CO)NC(=O)[C@@H](NC(=O)[C@H](Cc1ccccc1)NC(=O)[C@@H](NC(=O)CNC(=O)[C@H](CCC(=O)O)NC(=O)[C@@H](C)NC(=O)[C@@H](N)Cc1ccc(O)cc1)[C@@H](C)O)[C@@H](C)CC)C(=O)N[C@@H](CC(C)C)C(=O)N[C@@H](CC(C)C)C(=O)N[C@@H](CC(=O)O)C(=O)N[C@@H](CCCCN)C(=O)N[C@@H](CCCCNC(=O)COCCOCCNC(=O)COCCOCCNC(=O)CC[C@H](NC(=O)CCCCCCCCCCCCCCCCCCC(=O)O)C(=O)O)C(=O)N[C@@H](Cc1c[nH]cn1)C(=O)N[C@@H](CCC(N)=O)C(=O)N[C@@H](CCC(N)=O)C(=O)N[C@@H](CC(=O)O)C(=O)N[C@@H](Cc1ccccc1)C(=O)N[C@H](C(=O)N[C@@H](CC(N)=O)C(=O)N[C@@H](Cc1ccc(O)cc1)C(=O)N[C@@H](CC(C)C)C(=O)N[C@@H](CC(C)C)C(=O)N[C@@H](C)C(=O)N[C@@H](CCC(N)=O)C(=O)NCC(=O)N1CCC[C@H]1C(=O)N[C@@H](CO)C(=O)N[C@@H](CO)C(=O)NCC(=O)N[C@@H](C)C(=O)N1CCC[C@H]1C(=O)N1CCC[C@H]1C(=O)N1CCC[C@H]1C(=O)N[C@@H](CO)C(N)=O)C(C)C` [Example 15] (H-Y[dA]EGTFISDYSILLDKK([AEEA-AEEA-γGlu-C20 diacid])HQQDFVNYLLAQGPSSGAPPPS-NH2), the Ki in assay [1] was 471 pM; in assay [2], greater than 254000 pM.

For `CC[C@H](C)[C@H](NC(=O)[C@H](CO)NC(=O)[C@H](Cc1ccc(O)cc1)NC(=O)[C@H](CC(=O)O)NC(=O)[C@H](CO)NC(=O)[C@@H](NC(=O)[C@H](Cc1ccccc1)NC(=O)[C@@H](NC(=O)CNC(=O)[C@H](CCC(=O)O)NC(=O)[C@@H](C)NC(=O)[C@@H](N)Cc1ccc(O)cc1)[C@@H](C)O)[C@@H](C)CC)C(=O)N[C@@H](CC(C)C)C(=O)N[C@@H](CC(C)C)C(=O)N[C@@H](CC(=O)O)C(=O)N[C@@H](CCCCN)C(=O)N[C@@H](CCCCNC(=O)COCCOCCNC(=O)COCCOCCNC(=O)CC[C@H](NC(=O)CCCCCCCCCCCCCCCCC(=O)O)C(=O)O)C(=O)N[C@@H](C)C(=O)N[C@@H](CCC(N)=O)C(=O)NC(C)(C)C(=O)N[C@@H](CC(=O)O)C(=O)N[C@@H](Cc1ccccc1)C(=O)N[C@H](C(=O)N[C@@H](CCC(=O)O)C(=O)N[C@@H](Cc1c[nH]c2ccccc12)C(=O)N[C@@H](CC(C)C)C(=O)N[C@@H](CC(C)C)C(=O)N[C@@H](C)C(=O)N[C@@H](CCC(N)=O)C(=O)NCC(=O)N1CCC[C@H]1C(=O)N[C@@H](CO)C(=O)N[C@@H](CO)C(=O)NCC(=O)N[C@@H](C)C(=O)N1CCC[C@H]1C(=O)N1CCC[C@H]1C(=O)N1CCC[C@H]1C(=O)N[C@@H](CO)C(N)=O)C(C)C` [Example 16] (H-Y[dA]EGTFISDYSILLDKK([AEEA-AEEA-γGlu-C18 diacid])AQ[Aib]DFVEWLLAQGPSSGAPPPS-NH2), the values for the Ki in assay [1] and in assay [2] were 43.8 pM and 549000 pM, respectively.

Take `CC[C@H](C)[C@H](NC(=O)[C@H](CO)NC(=O)[C@H](Cc1ccc(O)cc1)NC(=O)[C@H](CC(=O)O)NC(=O)[C@H](CO)NC(=O)[C@@H](NC(=O)[C@H](Cc1ccccc1)NC(=O)[C@@H](NC(=O)CNC(=O)[C@H](CCC(=O)O)NC(=O)[C@@H](C)NC(=O)[C@@H](N)Cc1ccc(O)cc1)[C@@H](C)O)[C@@H](C)CC)C(=O)N[C@@H](CC(C)C)C(=O)N[C@@H](CC(C)C)C(=O)N[C@@H](CC(=O)O)C(=O)N[C@@H](CCCCN)C(=O)N[C@@H](CCCCNC(=O)COCCOCCNC(=O)COCCOCCNC(=O)CC[C@H](NC(=O)CCCCCCCCCCCCCCCCC(=O)O)C(=O)O)C(=O)N[C@@H](C)C(=O)N[C@@H](CCC(N)=O)C(=O)NC(C)(C)C(=O)N[C@@H](CC(=O)O)C(=O)N[C@@H](Cc1ccccc1)C(=O)N[C@H](C(=O)N[C@@H](CC(N)=O)C(=O)N[C@@H](Cc1c[nH]c2ccccc12)C(=O)N[C@@H](CC(C)C)C(=O)N[C@@H](CC(C)C)C(=O)N[C@@H](CCC(=O)O)C(=O)N[C@@H](CCC(N)=O)C(=O)NCC(=O)N1CCC[C@H]1C(=O)N[C@@H](CO)C(=O)N[C@@H](CO)C(=O)NCC(=O)N[C@@H](C)C(=O)N1CCC[C@H]1C(=O)N1CCC[C@H]1C(=O)N1CCC[C@H]1C(=O)N[C@@H](CO)C(N)=O)C(C)C` [Example 17] (H-Y[dA]EGTFISDYSILLDKK([AEEA-AEEA-γGlu-C18 diacid])AQ[Aib]DFVNWLLEQGPSSGAPPPS-NH2): the Ki in assay [1] stood at 57.1 pM; in assay [2], 274000 pM.

As for `CC[C@H](C)[C@H](NC(=O)[C@H](CO)NC(=O)[C@H](Cc1ccc(O)cc1)NC(=O)[C@H](CC(=O)O)NC(=O)[C@H](CO)NC(=O)[C@@H](NC(=O)[C@H](Cc1ccccc1)NC(=O)[C@@H](NC(=O)CNC(=O)[C@H](CCC(=O)O)NC(=O)[C@@H](C)NC(=O)[C@@H](N)Cc1ccc(O)cc1)[C@@H](C)O)[C@@H](C)CC)C(=O)N[C@@H](CC(C)C)C(=O)N[C@@H](CC(C)C)C(=O)N[C@@H](CC(=O)O)C(=O)N[C@@H](CCCCN)C(=O)N[C@@H](CCCCNC(=O)COCCOCCNC(=O)COCCOCCNC(=O)CC[C@H](NC(=O)CCCCCCCCCCCCCCCCC(=O)O)C(=O)O)C(=O)N[C@@H](C)C(=O)N[C@@H](CCC(N)=O)C(=O)NC(C)(C)C(=O)N[C@@H](CC(=O)O)C(=O)N[C@@H](Cc1ccccc1)C(=O)N[C@H](C(=O)N[C@@H](CC(N)=O)C(=O)N[C@@H](Cc1ccncc1)C(=O)N[C@@H](CC(C)C)C(=O)N[C@@H](CC(C)C)C(=O)N[C@@H](C)C(=O)N[C@@H](CCC(N)=O)C(=O)NCC(=O)N1CCC[C@H]1C(=O)N[C@@H](CO)C(=O)N[C@@H](CO)C(=O)NCC(=O)N[C@@H](C)C(=O)N1CCC[C@H]1C(=O)N1CCC[C@H]1C(=O)N1CCC[C@H]1C(=O)N[C@@H](CO)C(N)=O)C(C)C` [Example 18] (H-Y[dA]EGTFISDYSILLDKK([AEEA-AEEA-γGlu-C18 diacid])AQ[Aib]DFVN[4Pal]LLAQGPSSGAPPPS-NH2), the Ki is 33.1 pM in assay [1] and 463000 pM in assay [2].

For the molecule `CC[C@H](C)[C@H](NC(=O)[C@H](CO)NC(=O)[C@H](Cc1ccc(O)cc1)NC(=O)[C@H](CC(=O)O)NC(=O)[C@H](CO)NC(=O)[C@@H](NC(=O)[C@H](Cc1ccccc1)NC(=O)[C@@H](NC(=O)CNC(=O)[C@H](CCC(=O)O)NC(=O)[C@@H](C)NC(=O)[C@@H](N)Cc1ccc(O)cc1)[C@@H](C)O)[C@@H](C)CC)C(=O)N[C@@H](CC(C)C)C(=O)N[C@@H](CC(C)C)C(=O)N[C@@H](CC(=O)O)C(=O)N[C@@H](CCCCN)C(=O)N[C@@H](CCCCNC(=O)COCCOCCNC(=O)COCCOCCNC(=O)CC[C@H](NC(=O)CCCCCCCCCCCCCCCCC(=O)O)C(=O)O)C(=O)N[C@@H](C)C(=O)N[C@@H](CCC(N)=O)C(=O)NC(C)(C)C(=O)N[C@@H](CC(=O)O)C(=O)N[C@@H](Cc1ccccc1)C(=O)N[C@H](C(=O)N[C@@H](CC(N)=O)C(=O)N[C@@H](Cc1c[nH]c2ccccc12)C(=O)N[C@@H](CC(C)C)C(=O)N[C@@H](CC(C)C)C(=O)N[C@@H](C)C(=O)NCC(=O)NCC(=O)N1CCC[C@H]1C(=O)N[C@@H](CO)C(=O)N[C@@H](CO)C(=O)NCC(=O)N[C@@H](C)C(=O)N1CCC[C@H]1C(=O)N1CCC[C@H]1C(=O)N1CCC[C@H]1C(=O)N[C@@H](CO)C(N)=O)C(C)C` [Example 19] (H-Y[dA]EGTFISDYSILLDKK([AEEA-AEEA-γGlu-C18 diacid])AQ[Aib]DFVNWLLAGGPSSGAPPPS-NH2), the Ki is 46.9 pM in assay [1] and 335000 pM in assay [2].

Broadly, the Ki is a measure of affinity in units of concentration, obtained from inhibition or displacement.

The values are drawn from US12723063B2, “GIPR-agonist compounds” (Eli Lilly and Company, priority 2019, dated 2026).
